Test results published in patent publication US9302999B2, “Substituted triazoles as herbicides” (E. I. DU PONT DE NEMOURS AND COMPANY, priority 2012, dated 2016).

How the values were obtained:
soybean (Glycine max) = experiment: Test C pre-/postemergence: soybean; type: in vivo; conditions: Preemergence
Outline: (§1)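 Preemergence on seeds in loam/sand, postemergence on 2–18 cm (1–4-leaf) plants in peat-based medium; compounds in non-phytotoxic solvent with surfactant. After 13–15 days in greenhouse, visual rating versus controls, 0 (no effect) to 100 (complete control).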

[1] = test system: velvetleaf (Abutilon theophrasti); experiment: Test C pre-/postemergence: velvetleaf; type: in vivo; conditions: Preemergence
Outline: as §1

corn (Zea mays) = experiment: Test C pre-/postemergence: corn; type: in vivo; conditions: Preemergence
Outline: as §1

[2] = test system: foxtail, giant (giant foxtail, Setaria faberii); experiment: Test C pre-/postemergence: foxtail, giant; type: in vivo; conditions: Preemergence
Outline: as §1

[3] = test system: ducksalad (Heteranthera limosa); experiment: Test B flooded paddy: ducksalad; type: in vivo; conditions: Flood; 125 g ai/ha; applied to paddy water at 2-leaf stage; visually evaluated after 13 to 15 days
Outline: (§2)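 Response scored visually, 0–100 relative to controls, 13–15 days after the compound was applied into paddy water; plants were at the 2-leaf stage in pots kept flooded to 3 cm.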

rice (Oryza sativa) = experiment: Test B flooded paddy: rice; type: in vivo; conditions: Flood; 125 g ai/ha; applied to paddy water at 2-leaf stage; visually evaluated after 13 to 15 days
Outline: as §2

Oilseed Rape = experiment: Test C preemergence: oilseed rape; type: in vivo, Brassica napus; conditions: 125 g ai/ha, scale 0 to 100, 0 no effect, 100 complete control
[4] = test system: sedge, umbrella (small-flower umbrella sedge Cyperus difformis); experiment: Test B flooded paddy: sedge, umbrella; type: in vivo; conditions: Flood; 125 g ai/ha; applied to paddy water at 2-leaf stage; visually evaluated after 13 to 15 days
Outline: as §2

[5] = 31 g ai/ha, scale of 0 to 100, 0 is no effect, 100 is complete control
[6] = 62 g ai/ha, scale of 0 to 100, 0 is no effect, 100 is complete control
[7] = 125 g ai/ha, scale 0 to 100, 0 no effect, 100 complete control
[8] = 250 g ai/ha, scale 0 to 100, 0 no effect, 100 complete control

Question: Which results are given for `CCOCc1nn(-c2ccc(F)cc2)nc1Oc1ccnc(C(F)(F)F)c1` [Compound 163]?
Answer: Plant response rating, Soybean (soybean (Glycine max); [5]): 5; Plant response rating, Soybean (soybean (Glycine max); [6]): 5; Plant response rating, Soybean (soybean (Glycine max); [7]): 10; Plant response rating, Soybean (soybean (Glycine max); [8]): 20; Plant response rating, Velvetleaf [1, 5]: 0; Plant response rating, Velvetleaf [1, 6]: 10; Plant response rating, Velvetleaf [1, 7]: 20; Plant response rating, Velvetleaf [1, 8]: 75; Plant response rating, Corn (corn (Zea mays); [5]): 10; Plant response rating, Corn (corn (Zea mays); [6]): 10; Plant response rating, Corn (corn (Zea mays); [8]): 10; Plant response rating, Foxtail, Giant [2, 5]: 40; Plant response rating, Foxtail, Giant [2, 6]: 60; Plant response rating, Foxtail, Giant [2, 7]: 80; Plant response rating, Foxtail, Giant [2, 8]: 100; Plant response rating, Ducksalad (0 to 100 scale, 0 is no effect, 100 is complete control) [3]: 70; Plant response rating, Rice (0 to 100 scale, 0 is no effect, 100 is complete control) (rice (Oryza sativa)): 15; Plant response rating, Oilseed Rape (Oilseed Rape): 80; Plant response rating, Sedge, Umbrella (0 to 100 scale, 0 is no effect, 100 is complete control) [4]: 80
